Assay results: US20160250354A1, “METHODS AND COMPOSITIONS FOR DELIVERY OF ACTIVE AGENTS” (TEKMIRA PHARMACEUTICALS CORPORATION, priority 2010, published 2016)

Test system: Factor VII
Assay: in vivo rodent Factor VII silencing model (serum/plasma FVII after i.v. FVII siRNA lipid formulation)
Parameters: species or system C57BL/6 mice
Description: C57BL/6 mice (Charles River Labs, MA) receive either saline or siRNA in desired formulations via tail vein injection at a volume of 0.01 mL/g. At various time points post-administration, animals are anesthetized by isofluorane inhalation and blood is collected into serum separator tubes by retro orbital bleed. Serum levels of Factor VII protein are determined in samples using a chromogenic assay (Coaset Factor VII, DiaPharma Group, OH or Biophen FVII, Aniara Corporation, OH) according to manufacturer protocols. A standard curve is generated using serum collected from saline treated animals. In experiments where liver mRNA levels were assessed, at various time points post-administration, animals are sacrificed and livers are harvested and snap frozen in liquid nitrogen. Frozen liver tissue is ground into powder. Tissue lysates were prepared and liver mRNA levels of Factor VII and apoB are determined using a branched DNA assay (QuantiGene Assay, Panomics, CA).
Factor VII (FVII), a prominent protein in the coagulation cascade, is synthesized in the liver (hepatocytes) and secreted into the plasma. FVII levels in plasma can be determined by a simple, plate-based colorimetric assay. As such, FVII represents a convenient model for determining sirna-mediated downregulation of hepatocyte-derived proteins, as well as monitoring plasma concentrations and tissue distribution of the nucleic acid lipid particles and siRNA.
The cationic lipids shown above are used to formulate liposomes containing the AD-1661duplex using an in-line mixing method, as described in U.S. provisional patent application 61/228,373, which is incorporated by reference in its entirety. Lipid particles are formulated using the following molar ratio: 50% Cationic lipid/10% distearoylphosphatidylcholine (DSPC)/38.5% Cholesterol/1.5% PEG-DMG (1-(monomethoxy-polyethyleneglycol)-2,3-dimyristoylglycerol, with an average PEG molecular weight of 2000).
C57BL/6 mice (Charles River Labs, MA) receive either saline or formulated siRNA via tail vein injection. At various time points after administration, serum samples are collected by retroorbital bleed. Serum levels of Factor VII protein are determined in samples using a chromogenic assay (Biophen FVII, Aniara Corporation, OH). To determine liver mRNA levels of Factor VII, animals are sacrificed and livers were harvested and snap frozen in liquid nitrogen. Tissue lysates are prepared from the frozen tissues and liver mRNA levels of Factor VII are quantified using a branched DNA assay (QuantiGene Assay, Panomics, CA).
FVII activity is evaluated in FVII siRNA-treated animals at 48 hours after intravenous (bolus) injection in C57BL/6 mice. FVII is measured using a commercially available kit for determining protein levels in serum or tissue, following the manufacturer's instructions at a microplate scale. FVII reduction is determined against untreated control mice, and the results are expressed as % Residual FVII. Two dose levels (0.05 and 0.005 mg/kg FVII siRNA) are used in the screen of each novel liposome composition.
Cationic lipid containing particles are made using the preformed vesicle method. Cationic lipid, DSPC, cholesterol and PEG-lipid were solubilized in ethanol at a molar ratio of 40/10/40/10, respectively. The lipid mixture is added to an aqueous buffer (50 mM citrate, pH 4) with mixing to a final ethanol and lipid concentration of 30% (vol/vol) and 6.1 mg/mL respectively and allowed to equilibrate at room temperature for 2 min before extrusion. The hydrated lipids are extruded through two stacked 80 nm pore-sized filters (Nuclepore) at 22° C. using a Lipex Extruder (Northern Lipids, Vancouver, BC) until a vesicle diameter of 70-90 nm, as determined by Nicomp analysis, is obtained. This generally required 1-3 passes.
The FVII siRNA (solubilised in a 50 mM citrate, pH 4 aqueous solution containing 30% ethanol) is added to the vesicles, pre-equilibrated to 35° C., at a rate of ˜5 mL/min with mixing. […]

[1] = Table 10, dose resulting in a 50% reduction in plasma FVII levels vs control animals, lipid formulation with FVII siRNA, i.v. tail vein, C57Bl/6 mice

In the case of `CCCCC/C=C\C/C=C\CCCCCCCCC(CCCCCCCC/C=C\C/C=C\CCCCC)SSCCCCN(C)C` [Compound 2], the ED50 [1] is reported as 0.11 mg/kg.
`CCCCC/C=C\C/C=C\CCCCCCC[C@H]1OC2(CCN(C)CC2)O[C@@H]1CCCCCCC/C=C\C/C=C\CCCCC` [Compound 4] showed an ED50 [1] of 0.07 mg/kg.
With `CCCCCC1CC1CC1CC1CCCCCCCCC(CCCCCCCCC1CC1CC1CC1CCCCC)OC(=O)CCCN(C)C` (stereo not drawn) [Compound 1, 1,17-bis(2-((2-pentylcyclopropyl)methyl)cyclopropyl)heptadecan-9-yl 4-(dimethylamino)butanoate] the ED50 [1] was 0.12 mg/kg, the ED50 (in-line mixing formulation compound 1/DSPC/Chol/(C14)PEG-DMG 50/10/38.5/1.5, FIG. 1) was 0.01 mg/kg and the ED50 (pre-formed vesicle (PFV) formulation compound 1/DSPC/Chol/(C14)PEG-DMG 40/10/40/10, FIG. 2) was 0.12 mg/kg.
Compound `CCCCC/C=C\C/C=C\CCCCCCCCC(CCCCCCCC/C=C\C/C=C\CCCCC)ON=CCCCN(C)C` [Compound 3] has an ED50 [1] of 0.06 mg/kg.
